Here are results for 7 compounds from US8481536B2, “Benzotriazine inhibitors of kinases” (TargeGen, Inc., priority 2004, dated 2013).

Common to all, as to format: biochemical
The target in assay [1] is Recombinant human c-Src (Homo sapiens (Human), UniProt P12931). The assay is described as follows: Src kinase inhibition in vitro (luciferase-based residual ATP, KinaseGlo). The conditions noted are these: ATP 3 μM, PTK2 substrate, 90 minutes at room temperature. On the procedure:
(§1) The ability of compounds of the present invention to inhibit the activity of three groups of kinases was tested. Kinases tested included the src family (primarily src and yes), some angiogenic growth factor receptors (Fgfr1, Vegfr, and Pdgfrβ) and the ephrin, EphB4. All kinase reactions were conducted in 96-well plates with a final reaction volume of 50 ul.
(§2) After reacting for about 90 minutes at room temperature, residual ATP was determined using a luciferase-based assay (KinaseGlo, Promega Corp.) as a measure of kinase activity. Data from four wells were then averaged and used to determine IC50 values for the test compounds (Prism software package, GraphPad Software, San Diego Calif.).
(§3) The test results for inhibition of Src kinase are presented in Table 1, and the test results for inhibition of some other kinases (i.e., Yes, EphB4, and Pdgfrβ) are presented in Table 2.
(In general: Kinase-Glo reads ATP consumption through a luciferase reaction.)

The target in assay [2] is Pdgfrβ (Homo sapiens (Human), UniProt P09619). Briefly: Pdgfrβ kinase inhibition in vitro (luciferase-based residual ATP). Conditions: 500 nM ATP, PTK2 peptide, 60 minutes at 37 C; read-out: PDGFR IC50. On the procedure: as §1
Chain of Pdgfrβ (P09619 33-1106): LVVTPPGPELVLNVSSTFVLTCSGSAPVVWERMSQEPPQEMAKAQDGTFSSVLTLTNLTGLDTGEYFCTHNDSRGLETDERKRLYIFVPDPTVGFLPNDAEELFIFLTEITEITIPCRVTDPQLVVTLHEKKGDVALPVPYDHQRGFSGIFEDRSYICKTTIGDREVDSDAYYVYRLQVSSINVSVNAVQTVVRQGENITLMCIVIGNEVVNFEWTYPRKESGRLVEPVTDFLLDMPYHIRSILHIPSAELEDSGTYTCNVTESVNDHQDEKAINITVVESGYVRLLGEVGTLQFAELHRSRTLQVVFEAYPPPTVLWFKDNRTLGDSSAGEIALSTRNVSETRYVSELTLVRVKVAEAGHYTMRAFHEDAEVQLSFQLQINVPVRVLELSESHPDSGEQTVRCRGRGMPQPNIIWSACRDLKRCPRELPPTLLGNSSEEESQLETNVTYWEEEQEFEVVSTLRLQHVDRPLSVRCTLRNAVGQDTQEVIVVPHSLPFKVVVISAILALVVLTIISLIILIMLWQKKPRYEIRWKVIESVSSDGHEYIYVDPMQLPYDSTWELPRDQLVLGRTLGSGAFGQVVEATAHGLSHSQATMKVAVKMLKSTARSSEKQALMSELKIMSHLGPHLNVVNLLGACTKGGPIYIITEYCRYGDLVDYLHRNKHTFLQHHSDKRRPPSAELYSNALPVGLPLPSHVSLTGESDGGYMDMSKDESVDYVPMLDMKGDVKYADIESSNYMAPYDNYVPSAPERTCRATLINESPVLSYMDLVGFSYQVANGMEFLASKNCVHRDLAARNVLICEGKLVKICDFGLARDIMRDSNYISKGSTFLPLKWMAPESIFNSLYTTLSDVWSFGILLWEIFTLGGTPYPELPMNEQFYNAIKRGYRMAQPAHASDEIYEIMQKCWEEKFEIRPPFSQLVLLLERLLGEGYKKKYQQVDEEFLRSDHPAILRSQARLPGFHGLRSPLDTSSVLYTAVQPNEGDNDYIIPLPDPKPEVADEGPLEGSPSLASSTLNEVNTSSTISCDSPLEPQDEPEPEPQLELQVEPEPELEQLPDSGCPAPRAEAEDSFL
Pdgfrβ (0.16 ug/well, Panvera/Invitrogen) 500 nM ATP and the PTK2 peptide (700 uM) were combined with compound and reaction buffer as noted above for src. The reaction was incubated for 60 minutes at 37 C, and the residual ATP concentration was determined using the luciferase-based technique also noted above.
as §3

Assay [3] addresses EphB4 (Homo sapiens (Human), UniProt P54760). The assay is described as follows: EphB4 kinase inhibition in vitro (luciferase-based residual ATP). Conditions: 6 uM ATP, poly(glu4tyr), 60 minutes at 37 C. On the procedure:
as §1, §3

Assay [4] deals with Recombinant human Yes (Homo sapiens (Human), UniProt P07947). The assay is described as follows: Yes kinase inhibition in vitro (luciferase-based residual ATP, KinaseGlo). The conditions noted are these: ATP 3 μM, PTK2 substrate, 90 minutes at room temperature. As for the experimental part: as §1, §2, §3
Chain of Recombinant human Yes (P07947 whole entry): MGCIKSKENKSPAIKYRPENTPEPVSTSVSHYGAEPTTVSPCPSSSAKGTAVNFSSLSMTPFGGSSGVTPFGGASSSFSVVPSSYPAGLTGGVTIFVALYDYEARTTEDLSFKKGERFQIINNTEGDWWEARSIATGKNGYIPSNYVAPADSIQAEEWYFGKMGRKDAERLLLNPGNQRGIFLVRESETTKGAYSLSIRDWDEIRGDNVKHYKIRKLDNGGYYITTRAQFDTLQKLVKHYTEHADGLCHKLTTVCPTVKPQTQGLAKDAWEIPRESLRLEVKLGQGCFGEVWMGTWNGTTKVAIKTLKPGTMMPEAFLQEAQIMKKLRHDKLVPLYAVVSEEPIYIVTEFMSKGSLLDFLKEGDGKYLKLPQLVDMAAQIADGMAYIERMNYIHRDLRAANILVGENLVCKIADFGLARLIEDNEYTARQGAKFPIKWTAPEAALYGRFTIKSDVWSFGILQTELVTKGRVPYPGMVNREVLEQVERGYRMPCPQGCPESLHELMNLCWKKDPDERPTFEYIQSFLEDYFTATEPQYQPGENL

Each structure is given as a SMILES string.

Chain of Recombinant human c-Src (P12931 whole entry, looked up): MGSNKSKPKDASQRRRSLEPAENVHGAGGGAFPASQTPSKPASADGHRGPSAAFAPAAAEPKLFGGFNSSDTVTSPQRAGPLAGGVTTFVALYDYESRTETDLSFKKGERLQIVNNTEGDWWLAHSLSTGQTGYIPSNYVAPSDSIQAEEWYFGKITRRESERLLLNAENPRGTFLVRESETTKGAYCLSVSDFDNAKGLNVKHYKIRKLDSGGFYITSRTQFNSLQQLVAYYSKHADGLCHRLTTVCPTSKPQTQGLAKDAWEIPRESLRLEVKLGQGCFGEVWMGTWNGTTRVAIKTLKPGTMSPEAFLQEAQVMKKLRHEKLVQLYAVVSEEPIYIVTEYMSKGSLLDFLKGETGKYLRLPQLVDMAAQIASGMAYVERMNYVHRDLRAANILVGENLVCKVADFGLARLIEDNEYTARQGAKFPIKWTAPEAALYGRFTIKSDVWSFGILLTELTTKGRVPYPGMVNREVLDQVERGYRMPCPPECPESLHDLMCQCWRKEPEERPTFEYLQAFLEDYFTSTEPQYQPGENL
Chain of EphB4 (P54760 16-987): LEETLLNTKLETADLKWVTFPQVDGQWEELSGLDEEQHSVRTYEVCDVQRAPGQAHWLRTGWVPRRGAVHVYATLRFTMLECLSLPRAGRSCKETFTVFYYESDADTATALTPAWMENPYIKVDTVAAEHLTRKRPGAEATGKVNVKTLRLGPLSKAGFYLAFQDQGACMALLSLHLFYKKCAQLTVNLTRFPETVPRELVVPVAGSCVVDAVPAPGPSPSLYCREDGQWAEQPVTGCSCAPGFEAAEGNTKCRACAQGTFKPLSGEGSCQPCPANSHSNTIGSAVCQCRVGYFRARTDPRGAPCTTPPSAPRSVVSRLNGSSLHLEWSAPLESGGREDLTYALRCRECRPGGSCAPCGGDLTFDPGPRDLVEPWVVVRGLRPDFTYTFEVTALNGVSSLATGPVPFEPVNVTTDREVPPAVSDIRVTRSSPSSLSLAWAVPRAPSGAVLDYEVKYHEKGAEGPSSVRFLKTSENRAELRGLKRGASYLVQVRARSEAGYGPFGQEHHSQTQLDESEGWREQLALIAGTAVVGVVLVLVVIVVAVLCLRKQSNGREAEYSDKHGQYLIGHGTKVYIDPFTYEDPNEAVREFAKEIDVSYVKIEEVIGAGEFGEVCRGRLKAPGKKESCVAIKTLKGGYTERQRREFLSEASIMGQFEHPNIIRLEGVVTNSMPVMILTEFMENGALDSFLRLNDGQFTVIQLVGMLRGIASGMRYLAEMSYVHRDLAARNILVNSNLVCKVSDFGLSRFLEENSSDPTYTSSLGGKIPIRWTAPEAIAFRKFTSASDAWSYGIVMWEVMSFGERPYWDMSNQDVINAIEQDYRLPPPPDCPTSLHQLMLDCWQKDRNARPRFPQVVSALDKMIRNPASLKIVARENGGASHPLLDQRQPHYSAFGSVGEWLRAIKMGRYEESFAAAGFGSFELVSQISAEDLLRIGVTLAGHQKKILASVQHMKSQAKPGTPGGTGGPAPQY

What is called IC50 is the concentration needed to halve the response being measured. In the case of `Cc1cc2nc(Nc3ccc(S(=O)(=O)NCCN4CCCC4)cc3)nnc2cc1-c1c(C)cccc1C` [4-[7-(2,6-dimethyl-phenyl)-6-methyl-benzo[1,2,4]triazin-3-ylamino]-N-(2-pyrrolidin-1-yl-ethyl)-benzenesulfonamide], the IC50 in assay [1] came to 10.5 nM; in assay [2], 48.1 nM.
In the same order, the values of `Cc1cc(F)ccc1-c1cc2nnc(Nc3ccc(S(=O)(=O)NCCN4CCCC4)cc3)nc2cc1C` [4-[7-(4-fluoro-2-methyl-phenyl)-6-methyl-benzo[1,2,4]triazin-3-ylamino]-N-(2-pyrrolidin-1-yl-ethyl)-benzenesulfonamide] are 20.4 nM and 73.7 nM.
In the same order, the values of `CC(=O)Nc1cc(-c2c(C)cccc2C)cc2nnc(Nc3ccc(OCCN4CCCC4)cc3)nc12` [N-{7-(2,6-dimethyl-phenyl)-3-[4-(2-pyrrolidin-1-yl-ethoxy)-phenylamino]-benzo[1,2,4]triazin-5-yl}-acetamide] are 6.8 nM and 11.5 nM.
In the same order, the values of `Cc1cccc(C)c1-c1cc(NS(C)(=O)=O)c2nc(Nc3ccc(OCCN4CCCC4)cc3)nnc2c1` [N-{7-(2,6-dimethyl-phenyl)-3-[4-(2-pyrrolidin-1-yl-ethoxy)-phenylamino]-benzo[1,2,4]triazin-5-yl}-methanesulfonamide] are 20.4 nM and 15.7 nM.
In the case of `Cc1cccc(C)c1-c1cc(C)c2nc(Nc3cccc(S(=O)(=O)N4CCN(C)CC4)c3)nnc2c1` [[7-(2,6-dimethyl-phenyl)-5-methyl-benzo[1,2,4]triazin-3-yl]-[3-(4-methyl-piperazine-1-sulfonyl)-phenyl]-amine], the IC50 in assay [1] came out at 322 nM; in assay [2], 81.3 nM.
In the same order, the values of `Cc1cccc(C)c1-c1cc(C)c2nc(Nc3cccc(OCCN4CCN(C)CC4)c3)nnc2c1` [[7-(2,6-dimethyl-phenyl)-5-methyl-benzo[1,2,4]triazin-3-yl]-{3-[2-(4-methyl-piperazin-1-yl)-ethoxy]-phenyl}-amine] are 39.5 nM and 69.1 nM.
Take `Cc1cc(-c2cc(O)ccc2Cl)cc2nnc(Nc3ccc(OCCN4CCCC4)cc3)nc12` [[7-(2-chloro-5-hydroxy-phenyl)-5-methyl-benzo[1,2,4]triazin-3-yl]-[4-(2-pyrrolidine-1-yl-ethoxy)-phenyl]-amine]: the IC50 in assay [1] was found to be 1.6 nM; in assay [2], 1.1 nM; in assay [3], 15.9 nM; in assay [4], 0.5 nM.
